Data: article PMC10239048, “Synthesis and antioxidant, antimicrobial, and antiviral activity of some pyrazole-based heterocycles using a 2(3H)-furanone derivative” (Journal of the Iranian Chemical Society, 2023)
Converted amounts (≈) assume the structure as drawn.

Experiments:
[1] = tested on: embryonated chicken SPF eggs; settings: in vivo
[2] = tested on: Staphylococcus aureus; assay: MIC measurement by serial dilution, Staphylococcus aureus; assay type: cell-based; settings: 37 °C, 24–72 h, read-out: MIC Staph (Gram + ve)
[3] = tested on: Candida albicans; assay: Agar diffusion antifungal activity, Candida albicans; assay type: cell-based; settings: diffusion method
[4] = tested on: Haemophilus (Gram –ve); assay: Agar/disk diffusion inhibition zone, Haemophilus; assay type: cell-based; settings: diffusion method
[5] = Total antioxidant capacity (TAC), phosphomolybdenum method; settings: for Total antioxidant capacity: 500 µg/ml in methanol, 95 °C 90 min, 695 nm, means ± S.D., n = 3
[6] = tested on: avian influenza HPAI-H5N1 (AIV); design: species or system avian influenza virus HPAI-H5N1; settings: in vivo
[7] = tested on: Staphylococcus aureus; assay: Agar/disk diffusion inhibition zone, Staphylococcus aureus; assay type: cell-based; settings: diffusion method
[8] = tested on: Haemophilus (Gram –ve); assay: MIC measurement by serial dilution, Haemophilus; assay type: cell-based; settings: read-out: MIC Haemophilus (Gram –ve)
[9] = tested on: avian influenza HPAI-H5N1 (AIV); design: species or system avian influenza virus HPAI-H5N1; settings: in vivo; remark: listed apart in the source
[10] = tested on: SPF chicks; assay: Immune-boosting properties in vaccinated SPF chicks (humeral response); assay type: in vivo, chicken; settings: for Humeral response of vaccinated groups which received each tested compound separately: SPF chicks, vaccine-only group 7 log2; for Immune-boosting properties (in words): antibody titer in serum of vaccinated chicks

SMILES | CC50 [1] | MIC [2] [µg/mL] | Candida albicans (diameter of inhibition zone) [3] [mm] | Inhibition diameter Haemophilus (Gram –ve) [4] [mm] | Antioxidant activity (in words) [5] | Total antioxidant capacity [5] [mg AAE/g dry compound] | Antiviral activity against avian influenza virus (in words) [6] | Virus titer with compound [6] | Inhibition diameter Staph (Gram + ve) [7] [mm] | MIC [8] [µg/mL] | TI [9] | Humeral response of vaccinated groups which received each tested compound separately [10] [log2] | Immune-boosting properties (in words) [10]
Cc1ccc(C2=CC(=Cc3c(C)nn(-c4ccccc4)c3Cl)C(=O)O2)cc1 [Compound 3, 3-((5-Chloro-3-methyl-1-phenyl-1H-pyrazol-4-yl)methylene)-5-(p-tolyl)furan-2(3H)-one] | 300 > µl/ egg | 2 | 24 | 22 | Moderate antioxidant activity | 156.33 ± 4.04 | remarked antiviral activity | 10^1 | 23 | 1 (≈ 2.65 µM) | 96.77 | 7.3 | special immune-boosting properties
Cc1ccc(C2=CC(=Cc3c(C)nn(-c4ccccc4)c3Cl)C(=O)N2)cc1 [Compound 4, 3-((5-Chloro-3-methyl-1-phenyl-1H-pyrazol-4-yl)methylene)-5-(p-tolyl)-1,3-dihydro-2H-pyrrol-2-one] | 500 > µl/ egg | 5 | 25 | 22 | – | 278.56 ± 4.61 | remarked antiviral activity | 10^1 | 25 | 6 (≈ 16 µM) | 83.3 | 7.5 | special immune-boosting properties
Cc1ccc(C(=O)CC(=Cc2c(C)nn(-c3ccccc3)c2Cl)C(=O)NCc2ccccc2)cc1 [Compound 5, N-Benzyl-2-((5-chloro-3-methyl-1-phenyl-1H-pyrazol-4-yl)methylene)-4-oxo-4-(p-tolyl)butanamide] | 300 > µl/ egg | 3 | 22 | 23 | – | 221.14 ± 4.63 | remarked antiviral activity | 10^1 | 24 | 3 (≈ 6.2 µM) | 96.77 | 7.4 | special immune-boosting properties
Cc1ccc(C(=O)CC(=Cc2c(C)nn(-c3ccccc3)c2Cl)C(=O)NCC(C)C)cc1 [Compound 6, 2-((5-Chloro-3-methyl-1-phenyl-1H-pyrazol-4-yl)methylene)-N-isobutyl-4-oxo-4-(p-tolyl)butanamide] | 500 > µl/ egg | 4 | 20 | 25 | – | 248.67 ± 4.11 | remarked antiviral activity | 10^1 | 22 | 5 (≈ 11.1 µM) | 83.3 | 7.4 | special immune-boosting properties
Cc1ccc(C(=O)CC(=Cc2c(C)nn(-c3ccccc3)c2Cl)C(=O)NN)cc1 [Compound 8, 2-((5-Chloro-3-methyl-1-phenyl-1H-pyrazol-4-yl)methylene)-4-oxo-4-(p-tolyl)butanehydrazide] | 500 > µl/ egg | 13 | 8 | 4 | Moderate antioxidant activity | 145.0 ± 1.73 | little antiviral activity | – | 8 | 12 (≈ 29.3 µM) | 55.5 | 6.6 | –
Cc1ccc(-c2cc(Cc3c(C)nn(-c4ccccc4)c3Cl)c(=O)[nH]n2)cc1 [Compound 9, 4-((5-chloro-3-methyl-1-phenyl-1H-pyrazol-4-yl)methyl)-6-(p-tolyl)pyridazin-3(2H)-one] | 400 > µl/ egg | 19 | 2 | 1 | highest potent levels of activity | 374.0 ± 2.08 | little antiviral activity | – | 2 | 20 (≈ 51.2 µM) | 50 | 6 | less immune-boosting properties
Cc1ccc(C(=O)CC(=Cc2c(C)nn(-c3ccccc3)c2Cl)C(=O)NNc2ccccc2)cc1 [Compound 10, 2-((5-Chloro-3-methyl-1-phenyl-1H-pyrazol-4-yl)methylene)-4-oxo-N'-phenyl-4-(p-tolyl)butanehydrazide] | 500 > µl/ egg | 13 | 7 | 6 | highest potent levels of activity | 336.0 ± 3.46 | little antiviral activity | – | 7 | 17 (≈ 35.1 µM) | 55.5 | 6.9 | –
Cc1ccc(C(=O)CC(=Cc2c(C)nn(-c3ccccc3)c2Cl)C2=NCCN2)cc1 [Compound 11, 4-(5-Chloro-3-methyl-1-phenyl-1H-pyrazol-4-yl)-3-(4,5-dihydro-1H-imidazol-2-yl)-1-(p-tolyl)but-3-en-1-one] | 500 > µl/ egg | 5 | 24 | 22 | – | 280.0 ± 2.0 | remarked antiviral activity | 10^1 | 25 | 2 (≈ 4.77 µM) | 83.3 | 7.1 | special immune-boosting properties
CC(=O)N(C(C)=O)N1C(=O)C(=Cc2c(C)nn(-c3ccccc3)c2Cl)C=C1c1ccc(C)cc1 [Compound 13, N-Acetyl-N-(3-((5-chloro-3-methyl-1-phenyl-1H-pyrazol-4-yl)methylene)-2-oxo-5-(p-tolyl)-2,3-dihydro-1H-pyrrol-1-yl)acetamide] | 500 > µl/ egg | 9 | 14 | 12 | Moderate antioxidant activity | 190.0 ± 1.67 | less antiviral activity | – | 14 | 10 (≈ 21.1 µM) | 71.42 | 6.9 | –
Cc1ccc(C2=CC(=Cc3c(C)nn(-c4ccccc4)c3Cl)C(=O)N2NC(=O)c2ccccc2)cc1 [Compound 14, N-(3-((5-Chloro-3-methyl-1-phenyl-1H-pyrazol-4-yl)methylene)-2-oxo-5-(p-tolyl)-2,3-dihydro-1H-pyrrol-1-yl)benzamide] | 500 > µl/ egg | 16 | 7 | 8 | – | 261.0 ± 2.48 | little antiviral activity | – | 7 | 16 (≈ 32.3 µM) | 55.5 | 7.2 | –
